Test results taken from patent US8927717B1, “Thiochromeno[2,3-c]quinolin-12-one derivatives, preparation method and application thereof” (National Defense Medical Center, priority 2014, dated 2015).

Tests used:
Assay type in all cases: cell-based
[1] = test system: MOLT-4
[2] = test system: PC-3
[3] = test system: NCI-H23; details: Non-small cell lung cancer; 10^−5 molar; 48 hours; SRB
[4] = test system: TK-10; details: Renal cancer; 10^−5 molar; 48 hours; SRB
[5] = test system: HL-60(TB)
[6] = test system: NCI-H522
[7] = test system: A549/ATCC
[8] = test system: SNB-75
[9] = test system: SN12C
[10] = test system: K-562
[11] = test system: HOP-62
[12] = test system: 60 cancer cell lines; assay: NCI 60-cell screen, SRB, whole panel (mean, delta, range)
[13] = test system: UO-31
[14] = test system: SK-OV-3
[15] = test system: BT-549
[16] = test system: OVCAR-5
[17] = test system: ACHN
[18] = test system: SR
[19] = test system: HCT-116
[20] = test system: MDA-MB-231/ATCC
[21] = Leukemia, 10^−5 molar, 48 hours, SRB
[22] = Homo sapiens, NCI-H522, five dose
[23] = Non-small cell lung cancer, 10^−5 molar, 48 hours, SRB
[24] = Homo sapiens, A549/ATCC, five dose
[25] = Homo sapiens, SNB-75, five dose
[26] = Renal cancer, 10^−5 molar, 48 hours, SRB
[27] = Homo sapiens, HOP-62, five dose
[28] = Ovarian cancer, 10^−5 molar, 48 hours, SRB
[29] = Breast cancer, 10^−5 molar, 48 hours, SRB
[30] = Homo sapiens, HCT-116, five dose

CN(C)CCNc1nc2ccccc2c2c(=O)c3cc(Cl)ccc3sc12 [Compound N7, 10-Chloro-6-((2-(dimethylamino)ethyl)amino)-12H-thiochromeno[2,3-c]quinolin-12-one]
CC50 ([1]; Homo sapiens, MOLT-4, five dose, read-out: LC50 (the source's name)): 6.74 µM | Growth percent MOLT-4 [1, 21]: −56.34% | TGI ([1]; MOLT-4, five dose): 3.40 µM | GI50 ([2]; Homo sapiens, PC-3, five dose): 1.47 µM | CC50 ([2]; Homo sapiens, PC-3, five dose, read-out: LC50 (the source's name)): 5.74 µM | TGI ([2]; PC-3, five dose): 2.90 µM | Growth percent PC-3 ([2]; Prostate cancer, 10^−5 molar, 48 hours, SRB): 33.32% | Growth percent NCI-H23 [3]: 72.59% | Growth percent TK-10 [4]: −89.05% | TGI ([5]; HL-60(TB), five dose): 3.49 µM | GI50 ([5]; Homo sapiens, HL-60(TB), five dose): 1.76 µM | CC50 ([5]; Homo sapiens, HL-60(TB), five dose, read-out: LC50 (the source's name)): 6.95 µM | Growth percent HL-60(TB) [5, 21]: −47.40% | GI50 [6, 22]: 1.59 µM | LC50 (concentration causing 50% net cell kill) [6, 22]: 5.9 µM | TGI ([6]; NCI-H522, five dose): 3.07 µM | Growth percent NCI-H522 [6, 23]: −8.99% | TGI ([7]; A549/ATCC, five dose): 3.17 µM | GI50 [7, 24]: 1.66 µM | LC50 [7, 24]: 6.06 µM | Growth percent A549/ATCC [7, 23]: 23.38% | Growth percent SNB-75 ([8]; CNS cancer, 10^−5 molar, 48 hours, SRB): 33.36% | GI50 [8, 25]: 1.28 µM | LC50 [8, 25]: 12.1 µM | TGI ([8]; SNB-75, five dose): 3.69 µM | GI50 ([9]; Homo sapiens, SN12C, five dose): 1.59 µM | CC50 ([9]; Homo sapiens, SN12C, five dose, read-out: LC50 (the source's name)): 6.12 µM | Growth percent SN12C [9, 26]: 48.67% | TGI ([9]; SN12C, five dose): 3.12 µM | GI50 ([10]; Homo sapiens, K562, K-562, five dose): 1.33 µM | CC50 ([10]; Homo sapiens, K562, K-562, five dose, read-out: LC50 (the source's name)): 6.74 µM | TGI ([10]; K-562, five dose): 3.00 µM | Growth percent K-562 [10, 21]: −58.60% | TGI ([11]; HOP-62, five dose): 2.92 µM | GI50 [11, 27]: 1.54 µM | LC50 (lethal concentration 50) [11, 27]: 5.56 µM | Growth percent HOP-62 [11, 23]: 56.42% | GI50 ([12]; 60 cell, mean over panel, five dose): 1.66 µM | CC50 ([12]; 60 cell, mean over panel, five dose, read-out: LC50, Mean): 6.92 µM | Growth percent, Delta ([12]; delta over the cell panel, 10^−5 molar, 48 hours, SRB): 85.53% | TGI, Mean ([12]; mean over panel, five dose): 3.39 µM | Growth percent, Mean ([12]; mean over the cell panel, 10^−5 molar, 48 hours, SRB): −11.06% | Growth percent, Range ([12]; range over the cell panel, 10^−5 molar, 48 hours, SRB): 187.88% | GI50 ([13]; Homo sapiens, UO-31, five dose): 1.19 µM | CC50 ([13]; Homo sapiens, UO-31, five dose, read-out: LC50 (the source's name)): 5.22 µM | Growth percent UO-31 [13, 26]: 21.83% | TGI ([13]; UO-31, five dose): 2.50 µM | GI50 ([14]; Homo sapiens, SK-OV-3, five dose): 1.68 µM | CC50 ([14]; Homo sapiens, SK-OV-3, five dose, read-out: LC50 (the source's name)): 5.58 µM | Growth percent SK-OV-3 [14, 28]: 70.10% | TGI ([14]; SK-OV-3, five dose): 3.06 µM | TGI ([15]; BT-549, five dose): 2.27 µM | Growth percent BT-549 [15, 29]: 91.29% | GI50 ([15]; Homo sapiens, BT-549, five dose): 8.91 µM | CC50 ([15]; Homo sapiens, BT-549, five dose, read-out: LC50 (the source's name)): 5.33 µM | GI50 ([16]; Homo sapiens, OVCAR-5, five dose): 1.45 µM | CC50 ([16]; Homo sapiens, OVCAR-5, five dose, read-out: LC50 (the source's name)): 5.83 µM | TGI ([16]; OVCAR-5, five dose): 2.91 µM | Growth percent OVCAR-5 [16, 28]: 24.27% | TGI ([17]; ACHN, five dose): 3.07 µM | GI50 ([17]; Homo sapiens, ACHN, five dose): 1.63 µM | CC50 ([17]; Homo sapiens, ACHN, five dose, read-out: LC50 (the source's name)): 5.77 µM | Growth percent ACHN [17, 26]: 7.55% | GI50 ([18]; Homo sapiens, SR, five dose): 1.7 µM | LC50 (50% lethal concentration) ([18]; Homo sapiens, SR, five dose): 8.14 µM | Growth percent SR [18, 21]: −34.76% | TGI ([18]; SR, five dose): 3.73 µM | Growth percent HCT-116 ([19]; Colon cancer, 10^−5 molar, 48 hours, SRB): −96.59% | TGI ([19]; HCT-116, five dose): 3.18 µM | GI50 [19, 30]: 1.57 µM | LC50 (concentration killing 50% of cells) [19, 30]: 6.45 µM | Growth percent MDA-MB-231/ATCC [20, 29]: −37.28% | GI50 ([20]; Homo sapiens, MDA-MB-231/ATCC, five dose): 1.2 µM | CC50 ([20]; Homo sapiens, MDA-MB-231/ATCC, five dose, read-out: LC50 (the source's name)): 5.28 µM | TGI ([20]; MDA-MB-231/ATCC, five dose): 2.51 µM
